# Measured values as given in ChEMBL document CHEMBL6103620, “Gymnopeptides C and D, Highly N-Methylated Fungal Cyclopeptides” (J Nat Prod, 2025).
# The source made the active and inactive calls. The calls are words filed in the database; no cut-off is given here. Square brackets hold non-standard residues; d marks the D form. Peptide text beside a SMILES is read from it. ξ: configuration not given here. Thr(3ξ) = CC(O)[C@H](N)C(=O)O; NMeV = CN[C@H](C(=O)O)C(C)C; NMeA = CN[C@@H](C)C(=O)O; Sar = CNCC(=O)O
# Key:
# HaCaT = assay: Antiproliferative activity against human HaCaT cells assessed as reduction in cell viability incubated for 72 hrs by MTT assay; format: functional, cell-based
# A-375 [1] = assay: Induction of apoptosis in human A-375 cells assessed as increase in caspase-3 activity at 50 nM incubated for 24 hrs; format: functional, cell-based
# A-375 [2] = assay: Antiproliferative activity against human A-375 cells assessed as reduction in cell viability incubated for 72 hrs by MTT assay; format: functional, cell-based
# A-375 [3] = assay: Inhibition of cell migration in human A-375 cells assessed as decrease in number of cell migration into lower compartment at 50 nM measured after 16 hrs; format: functional, cell-based
# A-375 [4] = assay: Inhibition of cell migration in human A-375 cells assessed as reduction in cell numbers in wound area at 5 nM incubated for 72 hrs by methyl green staining based scratch assay; format: functional
Structure (SMILES),Activity (HaCaT),Activity (A-375 [1]),Activity (A-375 [2]),inhibition (A-375 [3]),inhibition (A-375 [4])
CC(C)[C@@H]1NC(=O)[C@H](C(C)C)N(C)C(=O)[C@H](C)NC(=O)[C@H]([C@H](C)O)N(C)C(=O)[C@H](C(C)C)NC(=O)[C@@H]2CCCN2C(=O)[C@H](C(C)C)NC(=O)[C@H](C)N(C)C(=O)[C@H](C(C)C)N(C)C(=O)CN(C)C(=O)[C@H](C)NC(=O)[C@H](C(C)C)N(C)C(=O)[C@H](C)NC(=O)[C@H](C(C)C)N(C)C(=O)[C@H](C(C)C)NC(=O)[C@H](C(C)C)N(C)C(=O)[C@H](C(C)C)NC(=O)[C@H](C(C)C)N(C)C1=O,Dose-dependent-effect,Active,Dose-dependent-effect,Active,Active; Significant Effect Observed
CC(C)[C@@H]1NC(=O)[C@H](C(C)C)N(C)C(=O)[C@H]([C@@H](C)O)NC(=O)[C@H](C(C)C)N(C)C(=O)[C@H](C(C)C)NC(=O)[C@H](C(C)C)N(C)C(=O)[C@H](C(C)C)NC(=O)[C@H](C(C)C)N(C)C(=O)[C@H](C(C)C)NC(=O)[C@H](C(C)C)N(C)C(=O)[C@H](C)NC(=O)[C@@H]([C@@H](C)O)N(C)C(=O)[C@H](C(C)C)NC(=O)[C@@H]2CCCN2C(=O)[C@H](C)NC(=O)[C@H](C)N(C)C(=O)[C@H](C(C)C)N(C)C(=O)CN(C)C1=O,Dose-dependent-effect,Active,Dose-dependent-effect,Active,Active; Significant Effect Observed
CC(C)[C@@H]1NC(=O)[C@H](C(C)C)N(C)C(=O)[C@H](C)NC(=O)[C@H](C(C)C)N(C)C(=O)[C@H](C(C)C)NC(=O)[C@H](C(C)C)N(C)C(=O)[C@H](C(C)C)NC(=O)[C@H](C(C)C)N(C)C(=O)[C@H](CO)NC(=O)[C@H](C(C)C)N(C)C(=O)[C@H](C)NC(=O)[C@H](C(C)C)N(C)C(=O)[C@H](C)NC(=O)CN(C)C(=O)[C@H](C(C)C)NC(=O)[C@H](C)N(C)C(=O)[C@H](C(C)C)N(C)C(=O)CN(C)C1=O (cyclo(A[NMeV]A[NMeV]S[NMeV]V[NMeV]V[NMeV]A[NMeV]V[Sar][NMeV][NMeA]V[Sar])),Dose-dependent-effect,Active; Significant Effect Was Not Observed,Dose-dependent-effect,Active,Active; Significant Effect Observed
CC(C)[C@@H]1NC(=O)[C@H](C(C)C)N(C)C(=O)[C@H](C)NC(=O)[C@H](C(C)C)N(C)C(=O)[C@H](C(C)C)NC(=O)[C@H](C(C)C)N(C)C(=O)[C@H](C(C)C)NC(=O)[C@H](C(C)C)N(C)C(=O)[C@H](C(C)O)NC(=O)[C@H](C(C)C)N(C)C(=O)[C@H](C)NC(=O)[C@H](C(C)C)N(C)C(=O)[C@H](C)NC(=O)CN(C)C(=O)[C@H](C(C)C)NC(=O)[C@H](C)N(C)C(=O)[C@H](C(C)C)N(C)C(=O)CN(C)C1=O (stereo not given in full) (cyclo(A[NMeV]A[NMeV][Thr(3ξ)][NMeV]V[NMeV]V[NMeV]A[NMeV]V[Sar][NMeV][NMeA]V[Sar])),Dose-dependent-effect,Active,Dose-dependent-effect,Active,Active; Significant Effect Observed
